Measurements taken from the supplement of paper PMC10307832.

Key:
Test in all cases: relative viability (nuclei count vs DMSO), 5 days (fraction); higher = more cells survive
DM3189 + Palbociclib = compound: C1CN(CCN1)C2=CC=C(C=C2)C3=CN4C(=C(C=N4)C5=CC=NC6=CC=CC=C56)N=C3 [DM3189] + CC(=O)c1c(C)c2cnc(Nc3ccc(N4CCNCC4)cn3)nc2n(C2CCCC2)c1=O [Palbociclib] (partner 0.5 µM)
Outline: (§1)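 Relative viability equals treated-well nuclei counts divided by vehicle-well nuclei counts. Counts came from 4× images of lung cancer cell lines grown in 1536-well plates for 5 days after pin-tool dosing on the day after seeding. Dosing used one drug alone or a fixed anchor-drug dose plus five library-drug doses (not always all listed) in √10 steps, and values are medians of duplicate plates.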

DM3189 + Luminespib = compound: C1CN(CCN1)C2=CC=C(C=C2)C3=CN4C(=C(C=N4)C5=CC=NC6=CC=CC=C56)N=C3 [DM3189] + CCNC(=O)c1noc(-c2cc(C(C)C)c(O)cc2O)c1-c1ccc(CN2CCOCC2)cc1 [Luminespib] (partner 0.01 µM)
Outline: as §1

DM3189 + Linsitinib = compound: C1CN(CCN1)C2=CC=C(C=C2)C3=CN4C(=C(C=N4)C5=CC=NC6=CC=CC=C56)N=C3 [DM3189] + C[C@]1(O)C[C@@H](c2nc(-c3ccc4ccc(-c5ccccc5)nc4c3)c3c(N)nccn32)C1 [Linsitinib] (partner 1 µM)
Outline: as §1

DM3189 + AZD7762 = compound: C1CN(CCN1)C2=CC=C(C=C2)C3=CN4C(=C(C=N4)C5=CC=NC6=CC=CC=C56)N=C3 [DM3189] + NC(=O)Nc1cc(-c2cccc(F)c2)sc1C(=O)N[C@H]1CCCNC1 [AZD7762] (partner 0.2 µM)
Outline: as §1

DM3189 + Olaparib = compound: C1CN(CCN1)C2=CC=C(C=C2)C3=CN4C(=C(C=N4)C5=CC=NC6=CC=CC=C56)N=C3 [DM3189] + O=C(c1cc(Cc2n[nH]c(=O)c3ccccc23)ccc1F)N1CCN(C(=O)C2CC2)CC1 [Olaparib] (partner 8 µM)
Outline: as §1

Cell Line	relative viability (DM3189 + Palbociclib; first compound 0.08 µM)	relative viability (DM3189 + Palbociclib; first compound 0.253 µM)	relative viability (DM3189 + Palbociclib; first compound 0.8 µM)	relative viability (DM3189 + Palbociclib; first compound 2.53 µM)	relative viability (DM3189 + Luminespib; first compound 0.08 µM)	relative viability (DM3189 + Luminespib; first compound 0.253 µM)	relative viability (DM3189 + Luminespib; first compound 0.8 µM)	relative viability (DM3189 + Luminespib; first compound 2.53 µM)	relative viability (DM3189 + Linsitinib; first compound 0.08 µM)	relative viability (DM3189 + Linsitinib; first compound 0.253 µM)	relative viability (DM3189 + Linsitinib; first compound 0.8 µM)	relative viability (DM3189 + Linsitinib; first compound 2.53 µM)	relative viability (DM3189 + AZD7762; first compound 0.08 µM)	relative viability (DM3189 + AZD7762; first compound 0.253 µM)	relative viability (DM3189 + AZD7762; first compound 0.8 µM)	relative viability (DM3189 + AZD7762; first compound 2.53 µM)	relative viability (DM3189 + Olaparib; first compound 0.08 µM)	relative viability (DM3189 + Olaparib; first compound 0.253 µM)	relative viability (DM3189 + Olaparib; first compound 0.8 µM)	relative viability (DM3189 + Olaparib; first compound 2.53 µM)
NCI-H460	0.305	0.187	0.158	0.16	0.0319	0.0329	0.0354	0.0318	1.21	0.879	0.708	0.353	0.784	0.524	0.395	0.691	0.449	0.415	0.325	0.619
NCI-H647	0.4	0.378	0.273	0.217	0.122	0.146	0.115	0.136	0.966	0.946	1	1.17	0.626	0.408	0.4	0.277	0.459	0.492	0.368	0.163
NCI-H650	0.321	0.311	0.304	0.369	0.761	0.729	0.701	0.767	1.12	0.84	0.659	0.763	0.937	0.956	1.05	1	0.355	0.428	0.347	0.329
NCI-H727	0.581	0.581	0.579	0.608	0.402	0.377		0.31	0.255	0.326		0.259	0.613	0.602	0.629	0.526	0.696	0.69	0.649	0.764
NCI-H838	0.265	0.224	0.174	0.205	0.309	0.322	0.242	0.246	0.969	0.918	0.716	0.87	0.979	0.856	0.816	0.895	0.871	0.711	0.543	0.556
NCI-H1355	0.357	0.416	0.349	0.387	0.621	0.674	0.626	0.602	0.785	0.793	0.663	0.738	0.687	0.813	0.585	0.648	0.723	0.687	0.689	0.785
NCI-H1395	0.528	0.593		0.605	0.662	0.589	0.492	0.646	0.979	1.05	0.695	1.03	0.385	0.396		0.39	0.421	0.463		0.39
NCI-H1437	0.359	0.364	0.339	0.388	1.15	1.1	1.1	1.1	1.05	1.06	0.966	0.893	1.14	1.15	0.969	1	0.627	0.633	0.609	0.592
